# Results: article PMC6927813 (Science (New York, N.Y.), 2019)
# T1: ParBF (Escherichia coli, UniProt P62558)
# T1 sequence (P62558 1-323): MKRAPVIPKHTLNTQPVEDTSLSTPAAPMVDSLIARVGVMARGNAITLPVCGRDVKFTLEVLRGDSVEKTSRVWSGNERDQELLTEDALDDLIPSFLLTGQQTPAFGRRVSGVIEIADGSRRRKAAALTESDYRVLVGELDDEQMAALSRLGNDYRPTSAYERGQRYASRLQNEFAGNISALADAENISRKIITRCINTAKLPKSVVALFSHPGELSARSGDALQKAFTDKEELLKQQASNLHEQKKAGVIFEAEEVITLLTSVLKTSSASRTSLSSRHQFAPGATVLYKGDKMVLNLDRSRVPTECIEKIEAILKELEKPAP
# T2: ParBBsu (full-length) (Bacillus subtilis, UniProt P26497)
# T2 sequence (P26497 1-282): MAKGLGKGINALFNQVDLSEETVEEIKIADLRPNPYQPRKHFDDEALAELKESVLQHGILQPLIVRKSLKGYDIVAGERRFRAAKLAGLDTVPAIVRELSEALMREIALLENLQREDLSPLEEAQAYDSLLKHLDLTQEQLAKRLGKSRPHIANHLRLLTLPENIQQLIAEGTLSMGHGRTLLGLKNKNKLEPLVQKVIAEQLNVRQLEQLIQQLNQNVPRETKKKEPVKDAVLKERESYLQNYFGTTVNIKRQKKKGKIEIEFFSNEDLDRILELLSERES
# T3: ParBP1 (Punavirus P1, UniProt Q38420)
# T3 sequence (Q38420 1-333): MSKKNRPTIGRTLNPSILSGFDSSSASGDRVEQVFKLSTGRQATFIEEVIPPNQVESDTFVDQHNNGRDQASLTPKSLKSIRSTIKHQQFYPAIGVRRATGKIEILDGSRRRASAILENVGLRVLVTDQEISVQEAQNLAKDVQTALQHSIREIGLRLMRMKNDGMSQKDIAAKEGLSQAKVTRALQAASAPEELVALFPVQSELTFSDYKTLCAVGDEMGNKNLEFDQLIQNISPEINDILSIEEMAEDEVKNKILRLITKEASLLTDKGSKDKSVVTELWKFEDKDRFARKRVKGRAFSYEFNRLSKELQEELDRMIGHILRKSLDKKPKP
# Key:
# [1] = molecular target: T1, ParBF; test: membrane-spotting assay, radiolabelled nucleotide; type: binding; settings: labelled compound
# [2] = molecular target: T2, ParBBsu (full-length); test: isothermal titration calorimetry; type: binding
# [3] = molecular target: T3, ParBP1; test: membrane-spotting assay, radiolabelled nucleotide; type: binding; settings: labelled compound
# [4] = molecular target: the molecule itself; test: crystal structure
# [5] = molecular target: the molecule itself; test: cross-linking
molecule,measurement,setting,value
Nc1ccn([C@@H]2O[C@H](COP(=O)(O)OP(=O)(O)OP(=O)(O)O)[C@@H](O)[C@H]2O)c(=O)n1 [CTP],"membrane-spotting assay, radiolabelled nucleotide",[1],CTP was also bound by plasmid-encoded ParB proteins (F plasmid ParBF
same,Kd,[2],10 to 50 µM
same,"membrane-spotting assay, radiolabelled nucleotide",[3],plasmid-encoded ParB proteins (F plasmid ParBF and P1 prophage ParBP1)
ParBBsu(21-218) (domain or fragment) ETVEEIKIADLRPNPYQPRKHFDDEALAELKESVLQHGILQPLIVRKSLKGYDIVAGERRFRAAKLAGLDTVPAIVRELSEALMREIALLENLQREDLSPLEEAQAYDSLLKHLDLTQEQLAKRLGKSRPHIANHLRLLTLPENIQQLIAEGTLSMGHGRTLLGLKNKNKLEPLVQKVIAEQLNVRQLEQLIQQLNQN,binding result,[4],binds
ParBBsu(T22C) (natural protein) MAKGLGKGINALFNQVDLSEECVEEIKIADLRPNPYQPRKHFDDEALAELKESVLQHGILQPLIVRKSLKGYDIVAGERRFRAAKLAGLDTVPAIVRELSEALMREIALLENLQREDLSPLEEAQAYDSLLKHLDLTQEQLAKRLGKSRPHIANHLRLLTLPENIQQLIAEGTLSMGHGRTLLGLKNKNKLEPLVQKVIAEQLNVRQLEQLIQQLNQNVPRETKKKEPVKDAVLKERESYLQNYFGTTVNIKRQKKKGKIEIEFFSNEDLDRILELLSERES,binding result,[5],binds
"ParBBsu(T22C, S278C) (natural protein) MAKGLGKGINALFNQVDLSEECVEEIKIADLRPNPYQPRKHFDDEALAELKESVLQHGILQPLIVRKSLKGYDIVAGERRFRAAKLAGLDTVPAIVRELSEALMREIALLENLQREDLSPLEEAQAYDSLLKHLDLTQEQLAKRLGKSRPHIANHLRLLTLPENIQQLIAEGTLSMGHGRTLLGLKNKNKLEPLVQKVIAEQLNVRQLEQLIQQLNQNVPRETKKKEPVKDAVLKERESYLQNYFGTTVNIKRQKKKGKIEIEFFSNEDLDRILELLCERES",stoichiometry N,[5],2
